Measured values: patent EP4813993A1, “COMPOUND, PREPARATION METHOD THEREFOR, AND USE THEREOF” (Sichuan Kelun Pharmaceutical Research Institute Co., Ltd., priority 2023, dated 2025)

Tests used:
[1] = target: T1, Nav1.8 channels (Homo sapiens, UniProt Q9Y5Y9); test: Manual patch-clamp, current of stably overexpressed Nav1.8 channels (resting state voltage program); format: cell-based; settings: for inhibition at 0.001 µM: concentration of 1 nM, read-out: Inhibition rate %
T1 construct: expressed in transfected cells
T1 sequence (Q9Y5Y9 whole entry): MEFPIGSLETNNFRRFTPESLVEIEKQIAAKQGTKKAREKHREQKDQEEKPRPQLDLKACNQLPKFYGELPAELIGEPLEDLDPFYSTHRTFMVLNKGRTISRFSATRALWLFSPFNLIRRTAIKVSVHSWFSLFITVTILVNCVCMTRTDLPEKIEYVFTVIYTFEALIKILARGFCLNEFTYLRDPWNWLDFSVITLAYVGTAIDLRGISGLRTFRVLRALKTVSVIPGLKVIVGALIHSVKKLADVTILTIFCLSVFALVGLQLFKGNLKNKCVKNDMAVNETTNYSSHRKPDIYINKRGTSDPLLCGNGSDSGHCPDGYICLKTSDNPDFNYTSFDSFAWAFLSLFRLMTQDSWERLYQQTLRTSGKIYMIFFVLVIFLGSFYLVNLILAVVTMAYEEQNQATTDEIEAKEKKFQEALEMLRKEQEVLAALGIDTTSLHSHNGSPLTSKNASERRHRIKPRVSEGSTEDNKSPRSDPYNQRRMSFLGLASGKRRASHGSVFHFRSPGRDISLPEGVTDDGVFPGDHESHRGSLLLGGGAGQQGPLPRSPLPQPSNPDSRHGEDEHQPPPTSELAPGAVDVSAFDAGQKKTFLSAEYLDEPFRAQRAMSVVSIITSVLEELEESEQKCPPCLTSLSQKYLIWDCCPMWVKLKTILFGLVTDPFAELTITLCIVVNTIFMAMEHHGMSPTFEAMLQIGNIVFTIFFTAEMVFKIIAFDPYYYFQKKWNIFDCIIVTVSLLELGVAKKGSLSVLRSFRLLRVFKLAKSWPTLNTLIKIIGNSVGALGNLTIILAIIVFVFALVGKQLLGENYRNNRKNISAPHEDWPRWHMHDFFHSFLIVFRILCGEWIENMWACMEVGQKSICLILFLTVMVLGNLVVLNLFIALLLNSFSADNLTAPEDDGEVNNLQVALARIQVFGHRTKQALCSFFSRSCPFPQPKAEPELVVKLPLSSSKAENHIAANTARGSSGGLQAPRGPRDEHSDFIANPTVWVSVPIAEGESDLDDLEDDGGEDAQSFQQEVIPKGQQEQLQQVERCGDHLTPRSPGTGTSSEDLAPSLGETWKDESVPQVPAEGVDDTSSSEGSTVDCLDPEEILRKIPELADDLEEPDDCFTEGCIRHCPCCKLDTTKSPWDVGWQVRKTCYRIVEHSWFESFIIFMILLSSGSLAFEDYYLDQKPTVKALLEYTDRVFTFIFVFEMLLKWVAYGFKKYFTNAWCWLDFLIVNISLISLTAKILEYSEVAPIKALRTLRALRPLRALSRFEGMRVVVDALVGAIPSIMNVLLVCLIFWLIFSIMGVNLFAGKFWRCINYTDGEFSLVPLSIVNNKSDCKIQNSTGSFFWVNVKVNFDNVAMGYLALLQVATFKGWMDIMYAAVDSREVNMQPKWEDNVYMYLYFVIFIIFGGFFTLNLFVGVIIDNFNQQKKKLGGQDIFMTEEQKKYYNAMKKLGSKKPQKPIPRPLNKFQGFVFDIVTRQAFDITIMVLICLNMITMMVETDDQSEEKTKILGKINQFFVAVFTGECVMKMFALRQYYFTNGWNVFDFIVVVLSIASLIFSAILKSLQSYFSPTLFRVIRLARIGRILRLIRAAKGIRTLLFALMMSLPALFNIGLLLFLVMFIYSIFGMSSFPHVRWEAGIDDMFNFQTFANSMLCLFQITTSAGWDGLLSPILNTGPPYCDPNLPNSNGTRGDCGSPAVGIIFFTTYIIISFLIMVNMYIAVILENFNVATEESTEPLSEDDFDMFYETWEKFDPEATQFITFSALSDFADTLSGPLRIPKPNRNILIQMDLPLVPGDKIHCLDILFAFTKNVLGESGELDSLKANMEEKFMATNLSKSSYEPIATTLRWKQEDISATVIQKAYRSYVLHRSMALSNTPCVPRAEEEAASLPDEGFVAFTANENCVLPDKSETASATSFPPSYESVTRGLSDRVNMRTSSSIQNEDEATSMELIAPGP
How it was run: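 Whole-cell manual patch clamp on cells stably overexpressing Nav1.8, held at -120 mV and stepped to 0 mV for 50 ms every 20 s (resting-state protocol). Compounds were perfused in ascending concentrations, each for 5 min or until stable; block of peak current was calculated at steady state.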

[2] = Pharmacokinetic study in ICR mice; format: in vivo; settings: male, mouse, plasma
Method: Experimental Example 3: Pharmacokinetic study of compounds in ICR mice
(§1) Experimental animals: ICR mice, male, 6-8 weeks old.
(§2) Compound preparation: 5% (final preparation volume) of DMSO was added to dissolve the test compound, and then 10% (final preparation volume) of Cremophor EL and 85% Saline were sequentially added.
The injection group was given free access to food and water. The oral group was fasted overnight (> 12 h) with free access to water, and was fed 4 h after administration. Blood samples were collected from the jugular vein of ICR mice at the following time points: 5 min, 15 min, 0.5 h, 1 h, 2 h, 4 h, 8 h, and 24 h after injection administration; 15 min, 0.5 h, 1 h, 2 h, 4 h, 6 h, 8 h, and 24 h after oral administration. The collected blood samples were anticoagulated, placed in an ice bath, and then centrifuged for 5 min to separate plasma. The plasma was stored at -70 °C for analysis.
Sample test: The concentrations of the designated compound drugs in plasma were determined by the LC-MS/MS method; the main pharmacokinetic parameters were calculated using the Winnolin 8.3 non-compartmental model. Pharmacokinetic test results of some compounds of the present disclosure in ICR mice

[3] = Tissue distribution study (dorsal root ganglia) in ICR mice; format: in vivo; settings: male, mouse, oral administration 20 mg/kg
Method: Experimental Example 4: Tissue distribution study of compounds in ICR mice
as §1, §2
Experimental design: The test compounds were administered to ICR mice as a single dose via oral administration (20 mg/kg; n = 3, 3 time points). Blood samples were collected at 0.25 h, 2 h, and 12 h after oral administration, followed by sacrifice of the animals. Dorsal root ganglia (DRG) were collected, rinsed with ice-cold normal saline to remove residual blood, blotted dry with absorbent paper, and stored at -70 °C for analysis.
Sample test: The concentrations of the compound drugs in dorsal root ganglia were determined by the LC-MS/MS method.

[4] = test system: formalin pain model; test: Rat formalin pain model; format: in vivo, SD rats
Method: Experimental Example 10: Pharmacodynamic effect study of compounds in rat formalin pain model
Experimental animals: SD rats, male, 180-200 g.
Compound preparation: 5% (final preparation volume) of DMSO was added to dissolve the test compound, and then 10% (final preparation volume) of Cremophor EL and 85% Saline were sequentially added; an appropriate amount of Etoricoxib was weighed, 5% (final preparation volume) of DMSO was added to dissolve the test compound, and then 5% (final preparation volume) of HS-15 and 90% Saline were sequentially added; the tramadol injection was diluted with normal saline to the desired concentration.
Each group consisted of 10 animals, and 50 µL of a 5% formalin solution was injected using a microsyringe into the right plantar region.
2. Administration and test
Based on different pharmacokinetic properties of the drugs, the administration was performed at 0 min, 60 min, and 120 min before modeling. After injection of the formalin, the number of pain responses in the rats was observed. […] Spontaneous pain responses were observed once every 5 min, and the number of pain responses in the rats within 1 min was counted, with a total observation duration of 60 min. Inhibition rate = (number of pain responses in control group - number of pain responses in administration group)/number of pain responses in control group × 100%.
Table 12. Administration information of compounds of the present disclosure in rat formalin model

COc1c([C@@H]2C[C@](C)(C(F)(F)F)S[C@H]2C(=O)Nc2ccc3nnnn3c2)ccc(F)c1F [Compound 202-A, (2R,3S,5R)-3-(3,4-difluoro-2-methoxyphenyl)-5-methyl-N-(tetrazolo[1,5-a]pyridin-6-yl)-5-(trifluoromethyl)tetrahydrothiophene-2-carboxamide]
inhibition at 0.001 µM [1]: 86.9% | AUC(0-inf) ([2]; Oral administration, 10 mg/kg): 12500 ng·h/mL | AUC(0-inf) ([2]; iv, Injection (i.v.), 2 mg/kg): 2050 ng·h/mL | concentration at 0.25 h [3]: 710 ng/g | concentration at 2 h [3]: 7200 ng/g | concentration at 12 h [3]: 2720 ng/g

COc1c([C@@H]2C[C@](C)(C(F)(F)F)S[C@H]2C(=O)Nc2cccc(S(N)(=O)=O)c2)ccc(F)c1F [Compound 223-A, (2R,3S,5R)-3-(3,4-difluoro-2-methoxyphenyl)-5-methyl-N-(3-sulfamoylphenyl)-5-(trifluoromethyl)tetrahydrothiophene-2-carboxamide]
IC50 [1]: 0.02 nM | AUC(0-inf) ([2]; Oral administration (p.o.), 20 mg/kg): 50600 ng·h/mL | AUC(0-inf) ([2]; iv, Injection (i.v.), 2 mg/kg): 7200 ng·h/mL | concentration at 0.25 h [3]: 511 ng/g | concentration at 2 h [3]: 2360 ng/g | concentration at 12 h [3]: 635 ng/g

COc1cccc(C2(O)CCCCC2CN(C)C)c1 (stereo not shown) [Tramadol]
Number of pain responses 0 min ([4]; SD rats, 10 mg/kg i.v. immediately before 5% formalin, 0 min, Mean + SD, n = 10): 31.9±15.0 | Number of pain responses 10 min ([4]; SD rats, 10 mg/kg i.v. immediately before 5% formalin, 10 min, Mean + SD, n = 10): 1.9±3.0 | Number of pain responses 15 min ([4]; SD rats, 10 mg/kg i.v. immediately before 5% formalin, 15 min, Mean + SD, n = 10): 4.1±4.4 | Number of pain responses 30 min ([4]; SD rats, 10 mg/kg i.v. immediately before 5% formalin, 30 min, Mean + SD, n = 10): 12.8±6.7 | Number of pain responses 40 min ([4]; SD rats, 10 mg/kg i.v. immediately before 5% formalin, 40 min, Mean + SD, n = 10): 13.2±8.1 | Number of pain responses 50 min ([4]; SD rats, 10 mg/kg i.v. immediately before 5% formalin, 50 min, Mean + SD, n = 10): 8.6±3.6 | Number of pain responses 60 min ([4]; SD rats, 10 mg/kg i.v. immediately before 5% formalin, 60 min, Mean + SD, n = 10): 9.3±5.1 | analgesic activity in the first and second phases ([4]; rat formalin pain model, first phase immediately after injection, second phase about 15-20 min after): superior analgesic effects in the first and second phases, respectively

COc1c([C@@H]2C[C@](C)(C(F)(F)F)S[C@H]2C(=O)Nc2ccc(F)c(OS(N)(=O)=O)c2)ccc(F)c1F [a-32-A]
IC50 [1]: 0.1 nM | AUC(0-inf) ([2]; Oral administration, 10 mg/kg): 22900 ng·h/mL | AUC(0-inf) ([2]; iv, Injection (i.v.), 2 mg/kg): 7390 ng·h/mL

COc1c([C@@H]2C[C@](C)(C(F)(F)F)S[C@H]2C(=O)Nc2nn(S(=O)(=O)C(F)(F)F)cc2C)ccc(F)c1F [a-43-A, (2R,3S,5R)-3-(3,4-difluoro-2-methoxyphenyl)-5-methyl-N-(4-methyl-1-((trifluoromethyl)sulfonyl)-1H-pyrazol-3-yl)-5-(trifluoromethane)tetrahydrothiophene-2-carboxamide]
inhibition at 0.001 µM [1]: 40.1%

CCS(=O)(=O)Nc1cccc(NC(=O)[C@@H]2S[C@@](C)(C(F)(F)F)C[C@H]2c2ccc(F)c(F)c2OC)c1 [a-44-A, (2R,3S,5R)-3-(3,4-difluoro-2-methoxyphenyl)-N-(3-(ethylsulfonamido)phenyl)-5-methyl-5-(trifluoromethyl)tetrahydrothiophene-2-carboxamide]
inhibition at 0.001 µM [1]: 49.9%

COc1c([C@@H]2C[C@](C)(C(F)(F)F)S[C@H]2C(=O)Nc2cccc(S(=O)(=O)NCCN)c2)ccc(F)c1F [a-45-A, (2R,3S,5R)-N-(3-(N-(2-aminoethyl)sulfamoyl)phenyl)-3-(3,4-difluoro-2-methoxyphenyl)-5-methyl-5-(trifluoromethyl)tetrahydrothiophene-2-carboxamide]
IC50 [1]: 0.024 nM

COc1c([C@@H]2C[C@](C)(C(F)(F)F)S[C@H]2C(=O)N(O)c2ccnc(-c3ncon3)c2)ccc(F)c1F [a-46-A, (2R,3S,5R)-N-(2-(1,2,4-oxadiazol-3-yl)pyridin-4-yl)-3-(3,4-difluoro-2-methoxyphenyl)-N-hydroxy-5-methyl-5-(trifluoromethyl)tetrahydrothiophene-2-carboxamide]
inhibition at 0.001 µM [1]: 46.7%

COc1c([C@@H]2C[C@](C)(C(F)(F)F)S[C@H]2C(=O)Nc2ccnc(-c3ncon3)c2)ccc(F)c1F [a-48-A, (2R,3S,5R)-3-(3,4-difluoro-2-methoxy-phenyl)-5-methyl-N-[2-(1,2,4-oxadiazol-3-yl)-4-pyridyl]-5-(trifluoromethyl)tetrahydrothiophene-2-carboxamide]
inhibition at 0.001 µM [1]: 71.9%

COc1c([C@@H]2C[C@](C)(C(F)(F)F)S[C@H]2C(=O)Nc2ccnc(SCN)c2)ccc(F)c1F [a-51-A, (2R,3S,5R)-N-(2-aminomethylthio-4-pyridyl)-3-(3,4-difluoro-2-methoxy-phenyl)-5-methyl-5-(trifluoromethyl)tetrahydrothiophene-2-carboxamide]
inhibition at 0.001 µM [1]: 88.5%

COc1c([C@@H]2C[C@](C)(C(F)(F)F)S[C@H]2C(=O)Nc2cccc(NS(=O)(=O)CC(C)N)c2)ccc(F)c1F (stereo partly drawn) [a-56-A, (2R,3S,5R)-N-(3-((2-aminopropyl)sulfonamido)phenyl)-3-(3,4-difluoro-2-methoxyphenyl)-5-methyl-5-(trifluoromethyl)tetrahydrothiophene-2-carboxamide]
inhibition at 0.001 µM [1]: 66.4%

COc1c([C@@H]2C[C@](C)(C(F)(F)F)S[C@H]2C(=O)Nc2ccnc(S(=O)(=O)N=[N+]=[N-])c2)ccc(F)c1F [a-66-A, 4-((2R,3S,5R)-3-(3,4-difluoro-2-methoxyphenyl)-5-methyl-5-(trifluoromethyl)tetrahydrothiophene-2-carboxamido)pyridine-2-sulfonyl azide]
IC50 [1]: 0.26 nM

COc1c([C@@H]2C[C@](C)(C(F)(F)F)S[C@H]2C(=O)Nc2ccnc(C3(C#N)CC3)c2)ccc(F)c1F [a-73-A, (2R,3S,5R)-N-(2-(1-cyanocyclopropyl)pyridin-4-yl)-3-(3,4-difluoro-2-methoxyphenyl)-5-methyl-5-(trifluoromethyl)tetrahydrothiophene-2-carboxamide]
inhibition at 0.001 µM [1]: 58.8%

COc1c(C2CC(C)(C(F)(F)F)SC2C(=O)Nc2ccc(NC(=O)CN=[N+]=[N-])cc2)ccc(F)c1F (stereo not shown) [a-75-A, N-(4-(2-azidoacetamido)phenyl)-3-(3,4-difluoro-2-methoxyphenyl)-5-methyl-5-(trifluoromethyl)tetrahydrothiophene-2-carboxamide]
inhibition at 0.001 µM [1]: 55.2%

COc1c([C@@H]2C[C@](C)(C(F)(F)F)S[C@H]2C(=O)Nc2ccnc(SC#N)c2)ccc(F)c1F [a-80-A, (2R,3S,5R)-3-(3,4-difluoro-2-methoxyphenyl)-5-methyl-N-(2-thiocyanatopyridin-4-yl)-5-(trifluoromethyl)tetrahydrothiophene-2-carboxamide]
IC50 [1]: 0.19 nM

COc1c([C@@H]2C[C@](C)(C(F)(F)F)S[C@H]2C(=O)Nc2ccc(F)c(C=O)c2)ccc(F)c1F [a-84-A, (2R,3S,5R)-3-(3,4-difluoro-2-methoxyphenyl)-N-(4-fluoro-3-formylphenyl)-5-methyl-5-(trifluoromethyl)tetrahydrothiophene-2-carboxamide]
inhibition at 0.001 µM [1]: 69.3%

COc1c([C@@H]2C[C@](C)(C(F)(F)F)S[C@H]2C(=O)Nc2ccnc(C(=O)NO)c2)ccc(F)c1F [a-87-A, 4-((2R,3S,5R)-3-(3,4-difluoro-2-methoxyphenyl)-5-methyl-5-(trifluoromethyl)tetrahydrothiophene-2-carboxamido)-N-hydroxypicolinamide]
inhibition at 0.001 µM [1]: 47.7%

COc1c([C@@H]2C[C@](C)(C(F)(F)F)S[C@H]2C(=O)Nc2ccc(F)c(/C=C(\C#N)C(N)=O)c2)ccc(F)c1F [a-89-A, (2R,3S,5R)-N-(3-((E)-3-amino-2-cyano-3-oxopropen-1-yl)-4-fluorophenyl)-3-(3,4-difluoro-2-methoxyphenyl)-5-methyl-5-(trifluoromethyl)tetrahydrothiophene-2-carboxamide]
inhibition at 0.001 µM [1]: 51.5%
